{"source": "patent US12295970B2", "about": "“Imidazoquinoline compounds and prodrugs thereof” (UNIVERSITY OF KANSAS, priority 2019, dated 2025)", "key": {"hTLR8": {"molecular_target": "T1, hTLR8 (Homo sapiens, UniProt Q9NR97)", "T1 construct": "host or cells: HEK293 (HEK-Blue hTLR8)", "T1 sequence (Q9NR97 27-1041)": "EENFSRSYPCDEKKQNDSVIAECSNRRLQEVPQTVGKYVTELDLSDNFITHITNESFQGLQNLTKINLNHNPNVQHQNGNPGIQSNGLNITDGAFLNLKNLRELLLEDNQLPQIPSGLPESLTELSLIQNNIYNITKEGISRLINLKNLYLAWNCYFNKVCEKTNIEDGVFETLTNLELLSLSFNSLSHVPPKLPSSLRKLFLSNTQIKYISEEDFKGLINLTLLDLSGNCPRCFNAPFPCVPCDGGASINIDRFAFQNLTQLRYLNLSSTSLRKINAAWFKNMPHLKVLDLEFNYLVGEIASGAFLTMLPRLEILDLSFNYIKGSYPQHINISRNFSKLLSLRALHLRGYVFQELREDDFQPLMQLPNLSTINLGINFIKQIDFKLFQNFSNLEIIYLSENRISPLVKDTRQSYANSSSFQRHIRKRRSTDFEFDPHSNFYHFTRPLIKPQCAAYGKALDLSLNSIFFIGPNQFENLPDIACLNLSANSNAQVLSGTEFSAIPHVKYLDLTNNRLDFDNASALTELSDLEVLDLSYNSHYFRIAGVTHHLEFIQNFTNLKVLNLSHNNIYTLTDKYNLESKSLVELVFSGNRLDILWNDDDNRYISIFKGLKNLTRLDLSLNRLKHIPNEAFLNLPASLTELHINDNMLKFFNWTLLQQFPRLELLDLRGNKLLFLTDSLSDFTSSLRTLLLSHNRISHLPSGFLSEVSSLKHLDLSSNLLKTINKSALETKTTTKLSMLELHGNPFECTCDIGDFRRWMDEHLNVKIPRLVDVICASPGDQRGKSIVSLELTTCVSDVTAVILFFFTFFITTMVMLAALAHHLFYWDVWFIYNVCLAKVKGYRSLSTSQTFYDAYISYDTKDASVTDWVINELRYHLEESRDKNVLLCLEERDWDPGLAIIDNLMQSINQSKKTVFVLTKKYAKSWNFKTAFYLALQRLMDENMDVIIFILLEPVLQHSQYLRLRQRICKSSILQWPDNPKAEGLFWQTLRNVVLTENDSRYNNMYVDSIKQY", "experiment": "SEAP reporter assay for hTLR-8 activity (HEK-Blue hTLR8 cells)", "assay_type": "cell-based", "procedure": "TLR activation induces NF-κB production and subsequent SEAP secretion, which is measured using HEK-Detection media (InvivoGen) containing a colorimetric substrate for SEAP (UV-Vis, 637 nm).\nThe experiments followed manufacturer protocol as follows: SEAP levels were measured via absorbance at 637 nm using HEK-Blue Detection cell culture medium (InvivoGen), which contains a SEAP-specific colorimetric substrate. Compound stock solutions were first diluted in sterile DMSO at a concentration of 10 mM. Lower concentrations were prepared by serial dilution of the initial 10 mM stock samples into sterile DMSO and these solutions (22 μL) were subsequently diluted into sterile H2O (198 μL) using a BioTek Precision XS pipetting system. HEK-Blue hTLR7, HEK-Blue hTLR8, Null 1−k, and Null 1 cell suspensions in sterile HEK-Blue Detection medium were prepared at a density of 220,000 cells per mL. Clear bottom, 96-well tissue culture treated plates (Corning) were seeded with hTLR7 and Null 1−k or hTLR8 and Null 1 cell suspensions (180 μL/well), after which 20 μL of the various sample concentrations in 10% v/v DMSO/H2O were added (20 μL) in quadruplicate wells to yield the desired testing concentration in 1% v/v DMSO cell suspension. Plates were incubated at 37° C. and 5% CO2 in the dark. Absorbance measurements were taken at 637 nm at 12 hours, 4 replicates per concentration point, per cell line (hTLR7, hTLR8, Null 1−k, Null 1). Three independent measurements on different days were performed for each analog.\nCorresponding well absorbance values for each concentration tested were averaged with respect to days tested, and the average relative NF-κB induction (UV-Vis, 637 nm) of the null cell lines (Null 1-k or Null 1) were subtracted from the respective average TLR expressing cell line (hTLR7 or hTLR8) absorbance averages. […] The three independent, normalized averages for each analog were then pooled, and the data was fit using the Hill-Slope model (GraphPad Prism v7.0) using the non-linear fit from the [Agonist] vs. response—Variable Slope (four parameters) with a hill slope constrained to less than 3."}, "[1]": {"experiment": "In vitro release kinetics (dialysis method)", "assay_type": "physicochemical", "settings": "PBS media, pH 7.4", "procedure": "Solutions (1 mL) of free R848 in DMSO, R848/HA-Toco in water, R848-Toco in DMSO, and R848-Toco/HA-Toco in water, with a concentration of 1 mg/mL on R848 basis were dialyzed using SnakeSkin® dialysis tubing (MWCO […]) against 30 mL of phosphate buffered saline release medium (PBS, 10 mM sodium phosphate, 137 mM NaCl, pH 7.4) with 0.5% (w/v) polysorbate 80 at 37° C. At predetermined time points, 1 mL aliquots of release medium were sampled and replaced with an equal volume of fresh medium. The samples were kept frozen (−20° C.) until HPLC analysis.\nResults: The in vitro release profiles of R848 and R848-Toco from the HA-Toco were studied using a dialysis method. […] The release of parent R848 formulated with HA-Toco was tested in PBS media, with free R848 dissolved in DMSO as a control. Similar release kinetics were observed whether R848 was formulated with HA-Toco or without ([…]), and in both conditions nearly 100% of the agonist was released over 24 h (FIG. 4A)."}, "[2]": {"experiment": "Depot effect: ear inflammation test in healthy rabbits", "assay_type": "in vivo, New Zealand White rabbits", "settings": "s.c. into rabbit ear", "procedure": "It was observed that a local injection of the R848-Toco/HA-Toco nano-emulsion forms a depot at the site of injection and releases the loaded agonist in a sustained fashion, producing prolonged and localized immune stimulation while minimizing systemic off-target effects. To test the localization effect, an ear inflammation test was conducted in healthy rabbits. R848-Toco/HA-Toco and unformulated R848 were injected subcutaneously into opposing rabbit ears of subjects, and local inflammation and systemic TNF-α responses were observed.\nNew Zealand White rabbits (3-4 kg) were anaesthetized using 5% isoflurane and injected subcutaneously with 2.5 mg of R848 in 250 μl of vehicle into the ipsilateral ear. R848-Toco/HA-Toco was formulated as described above, and the R848 parent compound was formulated in 0.5% polysorbate 80 (w/v) in water. For histopathology, punch biopsies were taken 24 hours post injection, fixed in formalin, and analyzed by a board-certified veterinary pathologist (Kansas State Veterinary Hospital, […], KS, USA). In separate animals, blood samples were taken pre-injection and at 0.5, 1, 2, 5, and 24 h post-injection time points from the contra-lateral ear (marginal vein, 22 ga). Whole blood was centrifuged at 1500×g for 5 min and the serum were collected for cytokine evaluation. All samples and controls were prepared, and serum cytokine levels were measured."}}, "note": "“Also recorded” adds a separate entry of the source."}
{"compound": "CCOCc1nc2c(N)nc3ccccc3c2n1CC(C)(C)O", "note": "[Compound 2, resiquimod, reference compound]", "values": [{"measurement": "agonist for TLR8 receptor (in words)", "setting": "hTLR8", "result": "agonists"}, {"measurement": "agonist released over 24 h", "setting": "[1]", "result": "~100", "unit": "%"}, {"measurement": "local response at the injection site", "setting": "[2]; 2.5 mg of R848 in 250 μl", "result": "minimum change; also recorded: no local reaction"}, {"measurement": "plasma TNF-α levels", "setting": "[2]; 0.5-24 h post-injection, n=4", "result": "significant elevation"}]}
